This is an account of results in US20100317690A1, “TREATMENT OF PROTEIN FOLDING DISORDERS” (SUMMIT CORPORATION PLC, priority 2007, published 2010).

This experiment deals with T1, Jack bean α-D-mannosidase (Canavalia ensiformis, UniProt C0HJB3).
T1 construct: purchased Sigma M7257
T1 sequence (C0HJB3 1-981): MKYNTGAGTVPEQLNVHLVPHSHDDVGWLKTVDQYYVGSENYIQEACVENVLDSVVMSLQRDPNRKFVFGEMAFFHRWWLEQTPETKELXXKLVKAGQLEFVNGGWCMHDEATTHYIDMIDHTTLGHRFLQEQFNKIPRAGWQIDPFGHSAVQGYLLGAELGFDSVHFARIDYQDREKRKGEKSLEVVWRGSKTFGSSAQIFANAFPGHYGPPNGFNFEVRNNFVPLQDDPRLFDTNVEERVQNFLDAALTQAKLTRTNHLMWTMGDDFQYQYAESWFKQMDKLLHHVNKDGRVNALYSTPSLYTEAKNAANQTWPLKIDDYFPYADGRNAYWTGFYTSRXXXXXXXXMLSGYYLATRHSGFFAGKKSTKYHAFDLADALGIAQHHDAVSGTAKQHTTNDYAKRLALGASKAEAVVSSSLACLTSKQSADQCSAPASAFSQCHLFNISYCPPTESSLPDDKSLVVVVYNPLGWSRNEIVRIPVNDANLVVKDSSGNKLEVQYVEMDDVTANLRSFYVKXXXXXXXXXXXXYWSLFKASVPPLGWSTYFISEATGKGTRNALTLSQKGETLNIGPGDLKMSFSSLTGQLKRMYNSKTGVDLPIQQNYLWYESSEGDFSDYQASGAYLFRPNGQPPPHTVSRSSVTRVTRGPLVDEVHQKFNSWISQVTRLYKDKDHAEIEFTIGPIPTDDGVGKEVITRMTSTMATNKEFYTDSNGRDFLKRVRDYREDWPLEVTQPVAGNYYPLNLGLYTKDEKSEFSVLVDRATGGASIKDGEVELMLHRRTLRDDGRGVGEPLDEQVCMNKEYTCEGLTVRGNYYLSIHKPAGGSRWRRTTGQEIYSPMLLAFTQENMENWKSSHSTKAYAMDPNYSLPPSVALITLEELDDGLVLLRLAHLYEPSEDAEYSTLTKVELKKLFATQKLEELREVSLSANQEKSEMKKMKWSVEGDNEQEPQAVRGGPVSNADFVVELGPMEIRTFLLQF
Briefly: Jack bean α-D-mannosidase activity assay (PNP-α-D-mannopyranoside substrate). Type of experiment: biochemical. As for the experimental part:
Fresh solutions had been prepared a day or so earlier of 0.2M Mcllvane buffer at pH 4.5 and 5 mM PNP-α-D-mannopyranoside (Sigma, N2127) in pH 4.5 buffer. Also prepared was a dilution of Jack bean α-D-mannosidase enzyme (Sigma, M7257, 22 Units/mg, 6.2 mg/ml.) at 0.6 Units/ml in pH 4.5 buffer.
The incubation mixture consisted of 10 μl enzyme solution, 10 μl of 1 mg/ml aqueous inhibitor solution and 50 μl of 5 mM substrate made up in buffer at the optimum pH for the enzyme. The reactions were stopped by addition of 70 μl 0.4M glycine (pH 10.4) during the exponential phase of the reaction, which had been determined at the beginning using uninhibited assays in which water replaced inhibitor. Final absorbances were read at 405 nm using a Versamax microplate reader (Molecular Devices). Assays were carried out in triplicate, and the values given are means of the three replicates per assay. Results were expressed as a percentage of uninhibited assays in which water replaced inhibitor.

One may read the inhibition as the relative decrease from the control value, in per cent.

With `O[C@H]1[C@H]2[C@H](O)CCCN2C[C@H]1O` [swainsonine], where the note is “activity promoted by imino sugars with a mannose configuration”, the “inhibition of the promoted activity” value was “total inhibition”. In addition, the “promotion of the mannosidase” value (any concentration tested) is “does not cause promotion”. The compound further came in with an inhibition (swainsonine alone, or mixed with an equal concentration of the selected stimulating compound) of 100%.
